ChEMBL document CHEMBL3351620, “Structure-activity relationships and molecular modeling studies of novel arylpiperazinylalkyl 2-benzoxazolones and 2-benzothiazolones as 5-HT(7) and 5-HT(1A) receptor ligands” (Eur J Med Chem, 2014)

Experiments:
[1] = molecular target: T1, 5-hydroxytryptamine receptor 1A (Homo sapiens, UniProt P08908); assay: Displacement of [3H]8-OH-DPAT from human 5-HT1A receptor transfected in […] cells after 30 mins by liquid scintillation spectrometry; format: cell-based
T1 sequence (P08908 whole entry): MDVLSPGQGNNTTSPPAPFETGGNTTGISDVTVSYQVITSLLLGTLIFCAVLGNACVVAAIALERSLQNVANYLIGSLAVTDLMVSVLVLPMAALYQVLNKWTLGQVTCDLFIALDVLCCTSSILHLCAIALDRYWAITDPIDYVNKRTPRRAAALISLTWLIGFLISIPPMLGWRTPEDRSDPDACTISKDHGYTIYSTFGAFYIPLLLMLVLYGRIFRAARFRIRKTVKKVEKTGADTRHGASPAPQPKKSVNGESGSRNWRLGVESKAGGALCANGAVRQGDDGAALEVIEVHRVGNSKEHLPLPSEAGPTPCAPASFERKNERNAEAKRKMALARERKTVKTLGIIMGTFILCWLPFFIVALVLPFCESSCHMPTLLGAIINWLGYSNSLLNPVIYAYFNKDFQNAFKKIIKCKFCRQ

[2] = molecular target: T2, 5-hydroxytryptamine receptor 7 (Homo sapiens, UniProt P34969); assay: Displacement of [3H]5-HT from human 5HT7 receptor transfected in […] cells after 30 mins by liquid scintillation spectrometry; format: cell-based
T2 sequence (P34969 whole entry): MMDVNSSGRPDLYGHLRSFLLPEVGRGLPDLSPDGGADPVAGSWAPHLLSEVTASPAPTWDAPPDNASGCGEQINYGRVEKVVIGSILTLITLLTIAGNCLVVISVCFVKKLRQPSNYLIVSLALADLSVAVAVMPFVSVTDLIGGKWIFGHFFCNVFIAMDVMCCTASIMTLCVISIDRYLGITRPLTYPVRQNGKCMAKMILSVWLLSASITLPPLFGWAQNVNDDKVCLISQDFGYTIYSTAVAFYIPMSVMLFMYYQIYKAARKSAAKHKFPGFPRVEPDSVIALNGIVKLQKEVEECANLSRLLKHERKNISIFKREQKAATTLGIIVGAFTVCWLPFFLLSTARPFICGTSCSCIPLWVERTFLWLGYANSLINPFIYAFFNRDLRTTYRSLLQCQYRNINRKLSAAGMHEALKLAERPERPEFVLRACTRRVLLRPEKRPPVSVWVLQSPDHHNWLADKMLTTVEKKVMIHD

[3] = organism: Homo sapiens; assay: Selectivity ratio of Ki for human 5HT1A receptor to Ki for human 5HT7 receptor
[4] = molecular target: T2, 5-hydroxytryptamine receptor 7; assay: Displacement of [3H]5-HT from human 5HT7 receptor transfected in […] cells ay 1 uM after 30 mins by liquid scintillation spectrometry; format: cell-based

COc1ccccc1N1CCN(CCCCn2c(=O)sc3ccccc32)CC1
Ki [1]: 24.6 nM
Ki [2]: 7.77 nM
Ratio Ki [3]: 3.16

O=c1sc2ccccc2n1CCCCCN1CCN(c2ccccc2)CC1
Ki [1]: 95.7 nM
Ki [2]: 20 nM
Ratio Ki [3]: 4.78

COc1ccccc1N1CCN(CCCCn2c(=O)oc3ccccc32)CC1
Ki [1]: 19.2 nM
Ki [2]: 10.3 nM
Ratio Ki [3]: 1.85

COc1ccccc1N1CCN(CCCCCCn2c(=O)sc3ccccc32)CC1
Ki [1]: 0.43 nM
Ki [2]: 2.9 nM
Ratio Ki [3]: 0.14

COc1ccccc1N1CCN(CCCn2c(=O)[nH]c3ccccc32)CC1
Ki [1]: 40 nM
Ki [2]: 3.4 nM

O=c1oc2ccccc2n1CCCCCN1CCN(c2ccccc2)CC1
Ki [1]: 19.2 nM
Ki [2]: 57.4 nM
Ratio Ki [3]: 0.33

O=c1sc2ccccc2n1CCCCN1CCN(c2ccc(Cl)cc2)CC1
Ki [1]: 83.3 nM
Ki [2]: 46.8 nM
Ratio Ki [3]: 1.77

Cc1ccccc1N1CCN(CCCCn2c(=O)sc3ccccc32)CC1
Ki [1]: 10.4 nM
Ki [2]: 0.99 nM
Ratio Ki [3]: 10.5

O=c1oc2ccccc2n1CCCCCCN1CCN(c2ccccc2)CC1
Ki [1]: 3.96 nM
Ki [2]: 14.1 nM
Ratio Ki [3]: 0.28

O=c1sc2ccccc2n1CCCCCCN1CCN(c2ccccc2)CC1
Ki [1]: 0.91 nM
Ki [2]: 2.96 nM
Ratio Ki [3]: 0.3

O=c1sc2ccccc2n1CCCCN1CCc2ccccc2C1
Ki [1]: 74.9 nM
Ki [2]: 2.84 nM
Ratio Ki [3]: 26.4

O=c1sc2ccccc2n1CCCCN1CCN(c2ccccc2)CC1
Ki [1]: 913 nM
Ki [2]: 36.5 nM
Ratio Ki [3]: 25

O=C1Nc2cc(F)ccc2C1CCCCN1CCN(c2cccc(Cl)c2)CC1 (stereo not drawn)
Ki [1]: 6.7 nM
Ki [2]: 118 nM

O=c1oc2ccccc2n1CCCCN1CCN(c2ccccc2)CC1
Ki [1]: 90.3 nM
Ki [2]: 26.3 nM
Ratio Ki [3]: 3.43

COc1ccccc1N1CCN(CCCCCCn2c(=O)oc3ccccc32)CC1
Ki [1]: 1.3 nM
Ki [2]: 11.7 nM
Ratio Ki [3]: 0.11

O=c1sc2ccccc2n1CCCCN1CCN(c2cccc(Cl)c2)CC1
Ki [1]: 6.13 nM
Ki [2]: 1.72 nM
Ratio Ki [3]: 3.56

COc1ccccc1N1CCN(CCCCC(=O)NC2CCCc3ccccc32)CC1 (stereo not drawn)
Ki [1]: 6.05 nM
Ki [2]: 9 nM

O=c1oc2ccccc2n1CCCCCCCN1CCN(c2ccccc2)CC1
Ki [1]: 29.8 nM
Ki [2]: 45.6 nM
Ratio Ki [3]: 0.65

O=c1sc2ccccc2n1CCCCCCCN1CCN(c2ccccc2)CC1
Ki [1]: 0.27 nM
Ki [2]: 7.58 nM
Ratio Ki [3]: 0.03

O=C1c2cccc3cccc(c23)N1CCCCCN1CCN(c2ccccc2)CC1
inhibition [4]: 92%

COc1ccccc1N1CCN(CCCCCn2c(=O)oc3ccccc32)CC1
Ki [1]: 11.9 nM
Ki [2]: 5.9 nM
Ratio Ki [3]: 2.01

O=c1[nH]c2ccccc2n1CCCCCN1CCN(c2ccc(Cl)cc2)CC1
Ki [1]: 454 nM

O=C1Cc2ccccc2N1CCCCN1CCN(c2cccc3ccccc23)CC1
Ki [1]: 47 nM
Ki [2]: 22 nM

COc1ccccc1N1CCN(CCCCCn2c(=O)sc3ccccc32)CC1
Ki [1]: 7.13 nM
Ki [2]: 5.16 nM
Ratio Ki [3]: 1.38

O=c1sc2ccccc2n1CCCCN1CCN(Cc2ccccc2)CC1
Ki [1]: 695 nM
Ki [2]: 41.9 nM
Ratio Ki [3]: 16.6

COc1ccccc1N1CCN(CCCCCCCn2c(=O)sc3ccccc32)CC1
Ki [1]: 0.21 nM
Ki [2]: 8.49 nM
Ratio Ki [3]: 0.02

COc1ccccc1N1CCN(CCCCCCCn2c(=O)oc3ccccc32)CC1
Ki [1]: 0.19 nM
Ki [2]: 7.73 nM
Ratio Ki [3]: 0.02
